Where two headings read alike, the source gives them in different places. Where a SMILES comes first, the peptide text is derived from it. Bridges are numbered along the chain shown (N, C = ends). [ ]: non-standard residue; d: D form. Nle = CCCC[C@H](N)C(=O)O
How the values were obtained:
[1] = tested on: MDA-MB-231 human breast cancer cells; assay: In vitro inhibition of MDA-MB-231 cell growth by analogs with amino acid substitutions (Example 7); type: cell-based; conditions: 100 nM, 8-10 days; for growth inhibition compared with Ang-(1-7) and TCAng05: added twice weekly
Protocol: To determine whether the novel analogs reduced tumor growth, subconfluent monolayers of actively growing MDA-MB-231 human breast cancer cells in 24-well cluster plates were incubated with 100 nM of Ang(1-7) (A7), TCAng05 (TC), or one of analogs NEP1-24 for 8-10 days. Ang-(1-7) was added daily as it is rapidly degraded while the Ang(1-7) analogs were added twice weekly at the time the cells were fed. Saline was used as control (C). Cell numbers were then counted using a Nexelcom Cellometer. Assays were performed in triplicate for 2-4 replicates.

[2] = tested on: A549 human lung cancer cells; type: cell-based; conditions: 100 nM, analogs added on Day 0 (single dose), cell number
Protocol: (§1) To determine the effect of the peptide analogs on tumor cell growth, 100 nM Ang-(1-7) or analogs TCAng01-TCAng05 (SEQ ID NOs:2-6) were incubated with subconfluent monolayers of actively growing A549 human lung cancer cells or MDA-MB-231 human breast cancer cells in 24-well cluster plates for 6 to 10 days or 7 to 10 days. Assays were performed in duplicate for 4-14 replicates or 3-14 replicates, respectively. Cell number was counted using a Nexelcom Cellometer. […] Ang-(1-7) does inhibit the growth of human breast cancer cells (by 42.9±5.2%, n=6, over 6-10 days) and human lung cancer cells (by 53.1±7.1%, n=12, over 7-10 days) if it is added daily, as shown in FIG. 2 and FIG. 3.

[3] = tested on: MDA-MB-231 human breast cancer cells; type: cell-based; conditions: 7 to 10 days; for reduction of cell growth / effect on MDA-MB-231 cell growth: 100 nM; for reduction of cell growth: analogs added on Day 0 (single dose), cell number; for effect on MDA-MB-231 cell growth: added once (Day 0/Day 1)
Protocol: as §1
A linear form of TCAng05 (L-TCAng05; SEQ ID NO:7) was tested to determine the influence of cyclization on the stability of the peptide. Subconfluent monolayers of MDA-MB-231 human breast cancer cells were incubated with 100 nM of Ang-(1-7), L-TCAng05, or TCAng05 for 7 to 10 days and cell number was counted using a Nexelcom Cellometer. Assays were performed in duplicate for 3-14 replicates. Ang-(1-7) was added daily, due to its rapid degradation.
Similar assays were performed to assess whether inhibition of cell growth by TCAng05 was mediated by the Ang-(1-7) receptor mas. Subconfluent monolayers of MDA-MB-231 human breast cancer cells were incubated with 100 nM of Ang-(1-7), added daily, or TCAng05, in the presence or absence of 1 μM Ang-(1-7) receptor antagonist D-Alanine^7-Ang-(1-7) [Dala] for 7 to 10 days and cell number was counted using a Nexelcom Cellometer. Assays were performed in duplicate for 4-14 replicates.

[4] = Stability of peptides incubated in rat plasma at 37° C., HPLC; type: in vitro ADME
Protocol: The stability of the Ang(1-7) peptide analog TCAng04 (SEQ ID NO:5) was assessed in rat plasma. The peptide was incubated with rat plasma at 37° C. for 60 min (left) or 125 hours (right). The concentration of TCAng04 and Ang-(1-7) was determined by HPLC using verified standards. Ang-(1-7) was rapidly degraded following incubation in rat plasma with a half-life of about 30 min, similar to the pharmacokinetics observed in two clinical trials (FIG. 1B) (see Rodgers et al. Cancer Chemother Pharmacol 2006; 57:559-68; and Petty et al. Clinical Cancer Research 2009; 15:7398-404). Conversely, TCAng04 was stable under the same conditions, with a half-life in rat plasma of approximately 50 hours.

CD34 = CD34 immunohistochemistry of tumors from orally treated mice (blood vessel density); type: in vivo, mouse; conditions: oral TCAng05
Protocol: (§2) To identify the molecular mechanisms for the reduction in tumor weight, tumors from mice that received oral TCAng05 (described in Example 5) were assessed for cell markers associated with cell proliferation, angiogenesis, and fibrosis. Tumors were fixed in 4% formalin, embedded in paraffin, sectioned at 5 microns, and analyzed by immunohistochemistry. Tumor tissue sections were visualized using a Leica DM microscope (Leica Microsystems, Bannockburn, Ill.) with the Simple PCI Version 6.0 computer-assisted imaging software (Hamamatsu Corporation, Sewickley, Pa.) and photographed with the Qlmaging Retiga 1300R Camera (Qlmaging Co. Surey, BC, Canada). The number of immunopositive cells is expressed as a percentage of the total cell number examined (100 cells counted from each tissue site within a tumor section).
Tumor sections were stained with an antibody specific for CD34 to label endothelial cells lining blood vessels and measure the density of blood vessels. […] In previous studies with orthotopic models, Ang-(1-7) reduced angiogenesis in mice with human lung tumors or human prostate tumors (Soto-Pantoj a et al., Mol Cancer Ther 2009; 8:1676-83; Krishnan et al., Prostate 2013; 73:60-70). This is in agreement with a reduction in the pro-angiogenic peptide platelet-derived growth factor (PDGF) in patients with solid tumors treated with Ang-(1-7) (Petty et al., BMC Cancer 2012; 12:404).

4T1 breast cancer cells [5] = assay: In vivo inhibition of tumor growth by subcutaneous administration, orthotopic 4T1 model in BALB/C mice; parameters: species or system mouse
Protocol: The ability of TCAng05 to inhibit tumor growth in vivo was measured in an orthotopic model of human breast cancer, using 4T1 breast cancer cells. 4T1 cells (2.5×10^5 in saline) were injected into the 4th mammary fat pad of BALB/C mice. Tumor size was measured every 3 days using a caliper and tumor volume was calculated using the formula for a semi-ellipsoid. The tumors were allowed to grow until they reached a size of 100 mm^3, at which point subcutaneous treatment was started (Day 0). Primed osmotic mini-pumps were implanted into the subcutaneous space on the back of each mouse to deliver either saline, 24 μg/kg/h Ang-(1-7), 6 μg/kg/h TCAng05 (low), 12 μg/kg/h TCAng05 (medium), or 24 μg/kg/h TCAng05 (high). Mice were sacrificed on Day 21 of treatment. Five animals were used per treatment group. […] Treatment with Ang-(1-7) reduced tumor size 50%, to a final size of 495.5±110.8 mm^3. […] At the time of sacrifice, the mice were weighed and the tumors, heart and kidneys were weighed.

Ki67 = Ki67 immunohistochemistry of tumors from orally treated mice (cell proliferation); type: in vivo, mouse; conditions: oral TCAng05, 12, 60, 300 μg/kg/day
Protocol: as §2
Tumor sections were stained with an antibody specific for Ki67 to measure cell proliferation.

collagen = assay: Picrosirius red collagen staining of tumors from orally treated mice (fibrosis); type: in vivo, mouse; conditions: oral TCAng05
Protocol: as §2
Tumor sections were stained with Picrosirius red to stain for collagen.

4T1 breast cancer cells [6] = type: in vivo, mouse; conditions: for final tumor volume: daily gavage, untreated 671.2±127.2
Protocol: The oral efficacy of TCAng05 to inhibit tumor growth in vivo was also measured using the orthotopic model of human breast cancer described in Example 4. 4T1 breast cancer cells were injected into the mammary fat pad of BALB/C mice (2.5×10^5 cells in saline). Tumor size was measured every 3 days using a caliper and tumor volume was calculated using the formula for a semi-ellipsoid. The tumors were allowed to grow until they reached a size of 100 mm^3, at which point treatment was started (Day 0). Mice received daily gavage of TCAng05 at one of three concentrations: 12 μg/kg/day (Low), 60 μg/kg/day (Medium), or 300 μg/kg/day (High). Mice were sacrificed on Day 21 of treatment. Treatment groups contained 3-4 animals. […] At the time of sacrifice, the tumors were weighed.

[7] = rat plasma, 37° C., HPLC, read-out: half-life in rat plasma (converted)

[Lac(2,9)]Ac-(Nle)cyc[DRVYIHP(K)-amide] (Ac-[Nle]DRVYIHPK-NH2; lactam 2-9; not fully specified; printed as [Lac(2,9)]Ac-(Nle)cyc[DRVYIHP(K)-amide]) [NEP8]
growth inhibition compared with Ang-(1-7) and TCAng05 [1]: reduced cell growth comparably

CC[C@H](C)[C@@H]1NC(=O)[C@H](Cc2ccc(O)cc2)NC(=O)[C@H](C(C)C)NC(=O)[C@H](CCCNC(=N)N)NC(=O)[C@H](CC(=O)O)NC(=O)C[C@@H](C(=O)N[C@@H](C(=O)N2CCC[C@@H]2C(N)=O)C(C)C)NC(=O)[C@@H]2CCCN2C(=O)[C@H](Cc2c[nH]cn2)NC1=O [TCAng04, cyc[DRVYIHPD](dV)(dP)-amide] (DRVYIHPD[dV][dP]-NH2; lactam N-8)
reduction of cell growth [2]: 33.7±12.3%
reduction of cell growth [3]: 51.5±5.4%
half-life [4, 7]: ~3000 min

[Lac(2,9)[Ac-(Nle)cyc[DRVYIHPK](dV)(dP)-amide (Ac-[Nle]DRVYIHPK[dV][dP]-NH2; lactam 2-9; not fully specified; printed as [Lac(2,9)[Ac-(Nle)cyc[DRVYIHPK](dV)(dP)-amide) [TCAng05]
density of blood vessels (CD34) in tumor sections (CD34): significant reduction
reduction of cell growth [2]: 33.7±12.3%
inhibition of growth in the presence of Ang-(1-7) receptor antagonist Dala ([3]; 100 nM peptide plus 1 μM D-Alanine7-Ang-(1-7) [Dala]): blocked
effect on MDA-MB-231 cell growth [3]: reduced growth
reduction of cell growth [3]: 51.5±5.4%
final tumor size (volume) (4T1 breast cancer cells [5]; 24 μg/kg/h, subcutaneous osmotic mini-pump, saline 980.1±35.0): 259.1±19.2 mm^3
tumor size across doses (4T1 breast cancer cells [5]; 6, 12, 24 μg/kg/h subcutaneous): dose-dependent reduction
reduction in tumor weight (4T1 breast cancer cells [5]; highest concentration (24 μg/kg/h), subcutaneous, at sacrifice): 48%
effect of low and medium doses (4T1 breast cancer cells [5]; low (6 μg/kg/h) and medium (12 μg/kg/h) doses, subcutaneous): not significantly impact
weight of the mice, size of hearts and kidneys (4T1 breast cancer cells [5]; mouse, in vivo, sc): no change
reduction of cell growth ([1]; Ang-(1-7) added daily, analogs added twice weekly): 27.3±9.8%
Ki67 immunoreactivity in tumor sections (Ki67): dose-dependent reduction
collagen staining (Picrosirius red) in tumor sections (collagen): reduced
final tumor volume (4T1 breast cancer cells [6]; high dose 300 μg/kg/day): 378.3±151.2 mm^3
effect of low dose (4T1 breast cancer cells [6]; low dose 12 μg/kg/day, oral): not significantly impact
final tumor volume (4T1 breast cancer cells [6]; medium dose 60 μg/kg/day): 289.7±64.2 mm^3
tumor weight (4T1 breast cancer cells [6]; medium or high oral dose, at sacrifice): reduced
mouse weight, heart weight or kidney weight (4T1 breast cancer cells [6]; mouse, in vivo, po): no effect

[Lac(2,9)]Ac-(Nle)cyc[DRVYIHP(Dab)](dV)(dP)-amide [NEP24]
growth inhibition compared with Ang-(1-7) and TCAng05 [1]: reduced cell growth comparably

[Lac(2,9)]H2N-(Nle)cyc[DRVYIHPK](dV)(dP)-amide (H-[Nle]DRVYIHPK[dV][dP]-NH2; lactam 2-9; not fully specified; printed as [Lac(2,9)]H2N-(Nle)cyc[DRVYIHPK](dV)(dP)-amide) [NEP16]
growth inhibition compared with Ang-(1-7) and TCAng05 [1]: reduced cell growth comparably

CC[C@H](C)[C@H](NC(=O)[C@H](Cc1ccc(O)cc1)NC(=O)[C@@H](NC(=O)[C@H](CCCNC(=N)N)NC(=O)[C@@H](N)CC(=O)O)C(C)C)C(=O)N[C@@H](Cc1c[nH]cn1)C(=O)N1CCC[C@H]1C(=O)O [Ang-(1-7), DRVYIHP]
weight of the mice, size of hearts and kidneys (4T1 breast cancer cells [5]; subcutaneous treatment, at sacrifice): no change
half-life [4, 7]: ~30 min
half-life ([4]; read-out: half-life in plasma): 30 min

[Lac(2,9)]Ac-(Nle)cyc[DRVYLHPK](dV)(dP)-amide (Ac-[Nle]DRVYLHPK[dV][dP]-NH2; lactam 2-9; not fully specified; printed as [Lac(2,9)]Ac-(Nle)cyc[DRVYLHPK](dV)(dP)-amide) [NEP12]
growth inhibition compared with Ang-(1-7) and TCAng05 [1]: reduced cell growth comparably

[Lac(2,9)]Ac-(Nle)cyc[DRVYAHPK](dV)(dP)-amide (Ac-[Nle]DRVYAHPK[dV][dP]-NH2; lactam 2-9; not fully specified; printed as [Lac(2,9)]Ac-(Nle)cyc[DRVYAHPK](dV)(dP)-amide) [NEP4]
growth inhibition compared with Ang-(1-7) and TCAng05 [1]: reduced cell growth comparably

Ac-(Nle)DRVYIHPK(dV)(dP)-amide (Ac-[Nle]DRVYIHPK[dV][dP]-NH2; SMILES CCCC[C@H](NC(C)=O)C(=O)N[C@@H](CC(=O)O)C(=O)N[C@@H](CCCNC(=N)N)C(=O)N[C@H](C(=O)N[C@@H](Cc1ccc(O)cc1)C(=O)N[C@H](C(=O)N[C@@H](Cc1c[nH]cn1)C(=O)N1CCC[C@H]1C(=O)N[C@@H](CCCCN)C(=O)N[C@@H](C(=O)N1CCC[C@@H]1C(N)=O)C(C)C)[C@@H](C)CC)C(C)C) [L-TCAng05, linear form of TCAng05]
effect on MDA-MB-231 cell growth [3]: ineffective

[Lac(2,9)]Ac-(Nle)cyc[DRVYIHP(NMeK)](dV)(dP)-amide [NEP20]
growth inhibition compared with Ang-(1-7) and TCAng05 [1]: reduced cell growth comparably

From patent US10829519B2, “Angiotensin (1-7) analogs and methods relating thereto” (WAKE FOREST UNIVERSITY HEALTH SCIENCES, priority 2015, dated 2020)
